Values after ≈ are worked out from the molar mass of the structure shown. Read-outs that look alike come from different tables or passages of the source. Starred links: 1 amine or outer side, 2 acyl side, 3 side chain; linkers in the order of their positions; H or OH if unused. Positions of bridges follow the written chain, without caps; N, C: chain ends. Residues, ends and D or L forms follow the SMILES beside them. *: point of attachment. C18 diacid = O=C(O)CCCCCCCCCCCCCCCCC(=O)*; γGlu = O=C(O)[C@H](CCC(=O)[*:2])N[*:1]; AEEA = NCCOCCOCC(=O)O
Key:
[1] = target: T1, human natriuretic peptide receptor 2 (hNPR2) (Homo sapiens, UniProt P20594); assay: In vitro hNPR2 activity assay (cGMP GloSensor reporter, HEK293); type: cell-based; conditions: for hNPR2 0% HSA. [EC50% rel CNP]: potency relative to CNP22 (0065)
T1 construct: expressed in transfected cells; host or cells: HEK293 (ATCC CRL-1573), clone 35, co-transfected with pGloSensor-42F
T1 sequence (P20594 23-1047): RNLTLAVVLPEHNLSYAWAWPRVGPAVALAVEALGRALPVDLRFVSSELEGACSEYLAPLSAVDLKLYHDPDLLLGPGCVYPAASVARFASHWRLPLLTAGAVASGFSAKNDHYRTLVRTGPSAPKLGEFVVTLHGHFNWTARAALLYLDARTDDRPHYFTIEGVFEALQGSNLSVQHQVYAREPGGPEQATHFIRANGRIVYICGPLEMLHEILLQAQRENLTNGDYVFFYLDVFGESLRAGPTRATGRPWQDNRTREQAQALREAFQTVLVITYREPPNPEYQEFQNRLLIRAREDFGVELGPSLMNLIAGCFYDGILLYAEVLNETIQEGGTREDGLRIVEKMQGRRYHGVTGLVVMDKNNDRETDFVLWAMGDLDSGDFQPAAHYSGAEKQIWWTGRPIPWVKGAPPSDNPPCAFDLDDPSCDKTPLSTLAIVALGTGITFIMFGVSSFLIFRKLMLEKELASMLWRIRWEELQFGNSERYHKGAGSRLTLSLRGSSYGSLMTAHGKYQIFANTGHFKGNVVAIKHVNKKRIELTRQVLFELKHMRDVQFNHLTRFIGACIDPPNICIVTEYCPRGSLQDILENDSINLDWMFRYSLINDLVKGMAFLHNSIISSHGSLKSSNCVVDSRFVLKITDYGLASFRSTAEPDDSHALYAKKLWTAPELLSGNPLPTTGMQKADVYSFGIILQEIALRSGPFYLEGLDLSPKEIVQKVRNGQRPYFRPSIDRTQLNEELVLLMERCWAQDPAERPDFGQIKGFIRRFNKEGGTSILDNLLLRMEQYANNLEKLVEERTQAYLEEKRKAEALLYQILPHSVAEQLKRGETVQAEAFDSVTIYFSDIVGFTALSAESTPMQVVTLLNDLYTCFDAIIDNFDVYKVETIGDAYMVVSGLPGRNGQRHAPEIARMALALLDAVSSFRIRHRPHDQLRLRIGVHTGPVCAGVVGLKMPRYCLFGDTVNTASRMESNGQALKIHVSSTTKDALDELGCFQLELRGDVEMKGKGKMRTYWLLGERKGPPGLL
Summary of the method: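 Potency is the EC50 from a four-parameter logistic fit, also expressed relative to the in-plate CNP22 control (×100), with at least two replicates. Compounds (ten concentrations, […], HSA-free diluent with 1% OVA, 0.01% Tween20) were incubated 30 min at 37 °C on HEK293 cells co-expressing hNPR2 and a GloSensor cGMP luciferase. Luminescence detected with Bright-Glo.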

[2] = Solubility of CNP compounds at pH 4.0 and pH 6.5; type: physicochemical
Summary of the method: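 Supernatant peptide concentration was quantified by CAD after overnight room-temperature equilibration of incompletely dissolved samples. Nominal loading was ≥4000-5000 nmol/mL. Media were pH 4.0 sodium acetate 5 mM/glycerol 250 mM, or pH 6.5 sodium phosphate 8 mM/glycerol 23 mg/mL reached by stepwise NaOH addition.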

[3] = 8 mM sodium phosphate, 23 mg/mL glycerol, pH 6.5, room temperature, read-out: Solubility at pH 6.5
[4] = 5 mM sodium acetate, 250 mM glycerol, pH 4.0, room temperature, read-out: Solubility at pH 4.0

In the case of CC[C@H](C)[C@@H]1NC(=O)[C@H](CCCNC(=N)N)NC(=O)[C@H](CCC(=O)O)NC(=O)[C@H](CC(C)C)NC(=O)[C@@H]2CCCN2C(=O)[C@H](CC(C)C)NC(=O)CNC(=O)[C@H](Cc2ccccc2)NC(=O)[C@@H](NC(=O)CNC(=O)[C@H](CCC(N)=O)NC(=O)[C@H](CO)NC(=O)CNC(=O)CNC(=O)[C@H](CCCCN)NC(=O)[C@H](CCCCN)NC(=O)[C@H](CCC(N)=O)NC(=O)[C@H](C)NC(=O)CNC(=O)[C@H](CCCCN)NC(=O)[C@H](Cc2ccc(O)cc2)NC(=O)COCCOCCNC(=O)COCCOCCNC(=O)COCCOCCNC(=O)COCCOCCNC(=O)CC[C@H](NC(=O)CC[C@H](NC(=O)CCCCCCCCCCCCCCCCC(=O)O)C(=O)O)C(=O)O)CSSC[C@@H](C(=O)O)NC(=O)CNC(=O)[C@H](CC(C)C)NC(=O)CNC(=O)[C@H](CO)NC(=O)[C@H](CC(C)C)NC(=O)[C@H](CO)NC(=O)CNC1=O [compound 1489] ({C18 diacid-γGlu-γGlu-AEEA-AEEA-AEEA-AEEA}-YKGAQKKGGSQGCFGLPLERIGSLSGLGC-OH; disulfide 13-29), the EC50 ([1]; 0% HSA, HEK293-hNPR2/GloSensor cells) is reported as 0.22 nM, the “hNPR2 0% HSA. [EC50% rel CNP]” value [1] is reported as 3.7% and the solubility ([2]; pH 4) is reported as 5.93 mM (≈ 24 mg/mL).
In the case of CC[C@H](C)[C@@H]1NC(=O)[C@H](CCCNC(=N)N)NC(=O)[C@H](CC(=O)O)NC(=O)[C@H](CC(C)C)NC(=O)[C@@H]2CCCN2C(=O)[C@H](CC(C)C)NC(=O)CNC(=O)[C@H](Cc2ccccc2)NC(=O)[C@@H](NC(=O)CNC(=O)[C@H](CCC(N)=O)NC(=O)[C@H](CO)NC(=O)[C@H](CO)NC(=O)CNC(=O)[C@H](CCCCN)NC(=O)[C@H](CCCCN)NC(=O)[C@H](CCC(N)=O)NC(=O)[C@H](C)NC(=O)CNC(=O)[C@@H]2CCCN2C(=O)[C@H](C)NC(=O)[C@H](CCC(N)=O)NC(=O)CNC(=O)COCCOCCNC(=O)COCCOCCNC(=O)CC[C@H](NC(=O)CCCCCCCCCCCCCCCCC(=O)O)C(=O)O)CSSC[C@@H](C(=O)O)NC(=O)CNC(=O)[C@H](CC(C)C)NC(=O)CNC(=O)[C@H](CO)NC(=O)[C@H](CC(C)C)NC(=O)[C@H](CO)NC(=O)CNC1=O [compound 9384] ({C18 diacid-γGlu-AEEA-AEEA}-GQAPGAQKKGSSQGCFGLPLDRIGSLSGLGC-OH; disulfide 15-31; C-terminus assumed), the “hNPR2 0% HSA. [EC50% rel CNP]” value [1] is reported as 53.7% and the solubility [2, 3] is reported as 7.56 mM (≈ 28 mg/mL).
In the case of CC[C@H](C)[C@@H]1NC(=O)[C@H](CCCNC(=N)N)NC(=O)[C@H](CC(=O)O)NC(=O)[C@H](CC(C)C)NC(=O)[C@@H]2CCCN2C(=O)[C@H](CC(C)C)NC(=O)CNC(=O)[C@H](Cc2ccccc2)NC(=O)[C@@H](NC(=O)CNC(=O)[C@H](CCC(N)=O)NC(=O)[C@H](CO)NC(=O)[C@H](CC(C)C)NC(=O)CNC(=O)[C@H](CCCCN)NC(=O)[C@H](CCCCN)NC(=O)[C@H](CCC(N)=O)NC(=O)[C@H](C)NC(=O)CNC(=O)[C@H](CCCCN)NC(=O)[C@H](Cc2ccc(O)cc2)NC(=O)[C@H](CCCCN)NC(=O)[C@H](CCCNC(=N)N)NC(=O)[C@H](C)NC(=O)COCCOCCNC(=O)COCCOCCNC(=O)COCCOCCNC(=O)COCCOCCNC(=O)CC[C@H](NC(=O)CC[C@H](NC(=O)CC[C@H](NC(=O)CC[C@H](NC(=O)CC[C@H](NC(=O)CCCCCCCCCCCCCCCCC(=O)O)C(=O)O)C(=O)O)C(=O)O)C(=O)O)C(=O)O)CSSC[C@@H](C(=O)O)NC(=O)CNC(=O)[C@H](CC(C)C)NC(=O)CNC(=O)[C@H](CO)NC(=O)[C@H](CC(C)C)NC(=O)[C@H](CO)NC(=O)CNC1=O [compound 9407] ({C18 diacid-γGlu-γGlu-γGlu-γGlu-γGlu-AEEA-AEEA-AEEA-AEEA}-ARKYKGAQKKGLSQGCFGLPLDRIGSLSGLGC-OH; disulfide 16-32), the “hNPR2 0% HSA. [EC50% rel CNP]” value [1] is reported as 38.6% and the solubility [2, 3] is reported as 6.69 mM (≈ 32.3 mg/mL).
For CC[C@H](C)[C@@H]1NC(=O)[C@H](CCCNC(=N)N)NC(=O)[C@H](CC(=O)O)NC(=O)[C@H](CC(C)C)NC(=O)[C@@H]2CCCN2C(=O)[C@H](CC(C)C)NC(=O)CNC(=O)[C@H](Cc2ccccc2)NC(=O)[C@@H](NC(=O)CNC(=O)[C@H](CCC(N)=O)NC(=O)[C@H](CO)NC(=O)CNC(=O)CNC(=O)[C@H](CCCCN)NC(=O)[C@H](CCCCN)NC(=O)[C@H](CCC(N)=O)NC(=O)[C@H](C)NC(=O)CNC(=O)[C@H](CCCCN)NC(=O)[C@H](Cc2ccc(O)cc2)NC(=O)COCCOCCNC(=O)COCCOCCNC(=O)COCCOCCNC(=O)COCCOCCNC(=O)CC[C@H](NC(=O)CC[C@H](NC(=O)CCCCCCCCCCCCCCCCC(=O)O)C(=O)O)C(=O)O)CSSC[C@@H](C(=O)O)NC(=O)CNC(=O)[C@H](CC(C)C)NC(=O)CNC(=O)[C@H](CO)NC(=O)[C@H](CC(C)C)NC(=O)[C@H](CO)NC(=O)CNC1=O [compound 9435] ({C18 diacid-γGlu-γGlu-AEEA-AEEA-AEEA-AEEA}-YKGAQKKGGSQGCFGLPLDRIGSLSGLGC-OH; disulfide 13-29; C-terminus assumed), the “hNPR2 0% HSA. [EC50% rel CNP]” value [1] was 73.6%, the solubility [2, 4] was 7.42 mM (≈ 29.9 mg/mL) and the solubility [2, 3] was 2.36 mM (≈ 9.5 mg/mL).
In the case of CC[C@H](C)[C@@H]1NC(=O)[C@H](CCCNC(=N)N)NC(=O)[C@H](CC(=O)O)NC(=O)[C@H](CC(C)C)NC(=O)[C@@H]2CCCN2C(=O)[C@H](CC(C)C)NC(=O)CNC(=O)[C@H](Cc2ccccc2)NC(=O)[C@@H](NC(=O)CNC(=O)[C@H](CCC(N)=O)NC(=O)[C@H](CO)NC(=O)[C@H](CC(C)C)NC(=O)CNC(=O)[C@H](CCCCN)NC(=O)[C@H](CCCCN)NC(=O)[C@H](CCC(N)=O)NC(=O)[C@H](C)NC(=O)CNC(=O)[C@H](CCCCN)NC(=O)[C@H](Cc2ccc(O)cc2)NC(=O)COCCOCCNC(=O)COCCOCCNC(=O)COCCOCCNC(=O)COCCOCCNC(=O)CC[C@H](NC(=O)CC[C@H](NC(=O)CC[C@H](NC(=O)CCCCCCCCCCCCCCCCC(=O)O)C(=O)O)C(=O)O)C(=O)O)CSSC[C@@H](C(=O)O)NC(=O)CNC(=O)[C@H](CC(C)C)NC(=O)CNC(=O)[C@H](CO)NC(=O)[C@H](CC(C)C)NC(=O)[C@H](CO)NC(=O)CNC1=O [compound 9480] ({C18 diacid-γGlu-γGlu-γGlu-AEEA-AEEA-AEEA-AEEA}-YKGAQKKGLSQGCFGLPLDRIGSLSGLGC-OH; disulfide 13-29), the “hNPR2 0% HSA. [EC50% rel CNP]” value [1] is reported as 45.2%, the solubility [2, 4] is reported as 0.023 mM (≈ 0.097 mg/mL) and the solubility [2, 3] is reported as 6.17 mM (≈ 26 mg/mL).
In the case of CC[C@H](C)[C@@H]1NC(=O)[C@H](CCCNC(=N)N)NC(=O)[C@H](CC(=O)O)NC(=O)[C@H](CC(C)C)NC(=O)[C@@H]2CCCN2C(=O)[C@H](CC(C)C)NC(=O)CNC(=O)[C@H](Cc2ccccc2)NC(=O)[C@@H](NC(=O)CNC(=O)[C@H](CO)NC(=O)[C@H](CO)NC(=O)[C@H](CC(C)C)NC(=O)CNC(=O)[C@H](CCCCN)NC(=O)[C@H](CCCCN)NC(=O)[C@H](CCC(N)=O)NC(=O)[C@H](C)NC(=O)CNC(=O)[C@H](CCCCN)NC(=O)[C@H](Cc2ccc(O)cc2)NC(=O)[C@H](CCCCN)NC(=O)[C@H](CCCNC(=N)N)NC(=O)[C@H](C)NC(=O)[C@H](CCC(N)=O)NC(=O)[C@@H]2CCCN2C(=O)[C@H](Cc2c[nH]cn2)NC(=O)[C@H](CCC(=O)O)NC(=O)[C@H](CCC(N)=O)NC(=O)CC[C@H](NC(=O)CC[C@H](NC(=O)CC[C@H](NC(=O)CC[C@H](NC(=O)CC[C@H](NC(=O)CCCCCCCCCCCCCCCCC(=O)O)C(=O)O)C(=O)O)C(=O)O)C(=O)O)C(=O)O)CSSC[C@@H](C(=O)O)NC(=O)CNC(=O)[C@H](CC(C)C)NC(=O)CNC(=O)[C@H](CO)NC(=O)[C@H](CC(C)C)NC(=O)[C@H](CO)NC(=O)CNC1=O [compound 9482] ({C18 diacid-γGlu-γGlu-γGlu-γGlu-γGlu}-QEHPQARKYKGAQKKGLSSGCFGLPLDRIGSLSGLGC-OH; disulfide 21-37), the “hNPR2 0% HSA. [EC50% rel CNP]” value [1] is reported as 39.4%, the solubility [2, 4] is reported as 0.099 mM (≈ 0.478 mg/mL) and the solubility [2, 3] is reported as 5.32 mM (≈ 25.7 mg/mL).

From patent US20240209028A1, “CNP COMPOUNDS” (priority 2022, published 2024)
